Among the data in a melting point compilation (Tetko et al.; mined from patent text by program, amines drawn as free bases though some values may be those of a salt) are melting point values, retold here.

Bounds are passed on as bounds.

In turn, `CC1=NN(c2cc(Cl)c(Sc3ccc(Cl)cc3)c(Cl)c2)C(=O)NC1` showed a melting point of 258 to 259 °C.

Regarding `O=C(Nc1ccc(-n2nc(C(F)(F)F)cc2C(F)(F)F)cc1)c1ccccc1Oc1ccccc1`, the melting point fell in the range of 108 to 109 °C.

With `CC12CCC(=O)C=C1CCC1C2CCC2(C)C(OC(=O)CBr)CCC12` (stereo unspecified), the melting point was in the range of 144 to 145 °C.

`CCCCCCCCCCCc1cc2ccc(C(=O)OCC)cc2[nH]1` yielded a melting point of 84 to 86 °C.

Take `Clc1ccc(Oc2cncc3sc(-c4nnn[nH]4)cc23)cc1`: the melting point lay in the range of 250 to 254 °C.

`Nc1cc(NC(=O)c2ccc(F)c(F)c2)ccc1F` had a melting point of 135 to 142 °C.

Regarding `Cc1ccc(-c2c(CNC(=O)OC(C)(C)C)c(CC(C)(C)C)nc(C)c2C(=O)O)cc1`, the melting point is 216 to 217 °C.

As to `CCCN1NCc2c(C3C(=O)Nc4ccc(Cl)cc43)ncnc21` (stereo unspecified), the melting point was in the range of 293 to 297 °C.

The compound `CCN(CC)C(=O)COc1cc(-c2ccccc2)cc2ccccc12` displayed a melting point of 82 °C.

In turn, `O=C1CCCN1c1nc(-n2ccnc2)c(I)c(C(F)(F)F)n1` had a melting point of 195 to 197 °C.

Regarding `N#Cc1cn(CCl)cc1-c1ccccc1Cl`, the melting point lay within 97 to 99 °C.

In turn, `CCOC(=O)N1CCN(c2ccc(OC[C@H]3CCn4cc([N+](=O)[O-])nc4O3)cc2)CC1` yielded a melting point of 218 °C.

In the case of `O=[N+]([O-])c1ccc2nc(-c3ccccc3)oc2n1`, the melting point fell in the range of 219 to 220 °C.

As for `COCCOc1c(F)c(Oc2ccc(S(C)(=O)=O)nc2)cc2cc(C3=NCC(CC(N)=O)S3)[nH]c12` (stereo unspecified), the melting point was 143 to 144 °C.

`CNS(=O)(=O)c1ccc(N2CC(CO)OC2=O)cc1` (stereo unspecified) registered a melting point of 164 to 166 °C.

Take `CC(C)Cn1cnc2cnc3ccc(OCc4ccccc4)cc3c21`: the melting point lay in the range of 129 to 133 °C.

With `O=c1[nH]c(=O)n(CCCCN2CCC(OC(c3ccccc3)c3ccccc3)CC2)c2ccc([N+](=O)[O-])cc12`, the melting point fell in the range of 211 to 213 °C.

`Clc1nc2ccccc2c2c1ncn2Cc1ccncc1` returned a melting point greater than 300 °C.

Consider `O=C(Nc1ccc(CCNc2ncccn2)cc1)c1cccs1`, for which the melting point lay in the range of 191 to 192 °C.

Take `Oc1ncncc1Oc1ccccc1`: the melting point fell in the range of 186 to 188 °C.

In the case of `O/N=C(\Sc1ccccc1)C(F)(F)F`, the melting point lay within 64 to 66 °C.

The compound `O=c1c2ccccc2[nH]c2c(OCCN(CCCl)CCCl)cccc12` displayed a melting point of 131 to 133 °C.

As for `CNc1c2c(nc3ccccc13)CCCC2=O`, the melting point fell in the range of 116 to 117 °C.

Consider `O=C(C1CCC1)N1C[C@@H](c2c[nH]c3ccccc23)[C@H](c2cn3c4c(cccc24)CCC3)C1`, for which the melting point fell in the range of 253 to 255 °C.

Compound `CC(C)(O)Cn1c(COc2ccccc2)nc2c(N)nc3ccccc3c21` had a melting point of 200 to 201 °C.

`O=C1C(=CO)Cc2ccccc21` yielded a melting point of 112 to 113 °C.

As to `CCN(C(C)=O)c1cccc(-c2ccc3nnc(C)n3n2)c1`, the melting point lay within 180 to 185 °C.

Take `COc1cc2c(Nc3ccc(Sc4nccn4C)c(Cl)c3)c(C#N)cnc2cc1-c1ccc(CN2CCOCC2)c(CN2CCOCC2)c1`: the melting point lay within 228 to 230 °C.

Take `CCc1oc2ccccc2c1C(=O)N(C)Cc1ccc2cc(O)ccc2c1`: the melting point is 80 to 90 °C.

As to `O=C1CCc2c(ccc3cc(O)ccc23)O1`, the melting point lay within 189 to 199 °C.

Compound `N#CSCCNc1ccc(C(F)(F)F)cc1[N+](=O)[O-]` gave a melting point of 115 to 117 °C.

`CCn1cc(C(=O)O)c2nc3c(C)cccc3cc2c1=O` gave a melting point of 251 to 253 °C.

Take `CCn1ncc2c(NCC3CCCC(O)C3)c3cc([N+](=O)[O-])ccc3nc21` (stereo unspecified): the melting point was in the range of 236 to 238 °C.

Compound `CC(=O)N(CC(C)O)c1c(C)cccc1C` (stereo unspecified) came in with a melting point of 64 to 67 °C.

As to `COc1cc2c(cc1OC)NC1=C(C2)C(=O)N(C)CN1`, the melting point was in the range of 225 to 230 °C.

Compound `CCOC(=O)c1c(N)c2cccnc2n(CC(C)C)c1=O` came in with a melting point of 157 to 159 °C.

On to `CC(=O)Nc1cccc(-c2nc3ncccc3[nH]2)c1`, for which the melting point is greater than 250 °C.

Turning to `CCOC(=O)C1Cc2ccc(NC)cc2NC1=O` (stereo unspecified), the melting point was 171 to 172 °C.

Compound `CCCNC(=O)C1(O)CC(O)C2OC(C)(C)OC2C1` (stereo unspecified) registered a melting point of 85 to 86 °C.

As to `CN1C(=O)[C@@H](NC(=O)OC(C)(C)C)COc2ccccc21`, the melting point amounted to 152 °C.

`O=C(CCCC1CCCCC1)C1=C(O)COC1=O`: the melting point is 38 to 42 °C.

The compound `Clc1ccc2c(c1)C(c1ccccc1)=NCc1c[nH]cc1-2` returned a melting point of 203 to 206 °C.

Regarding `CC(=O)C(=[N+]=[N-])S(=O)(=O)C(C)C`, the melting point lay in the range of 53 to 55 °C.

In turn, `COC(=O)c1c(OC)cc(C=O)cc1OC` had a melting point of 113 to 114 °C.

`COc1cc(C(=O)N2CCC(CCN3CCC(C(=O)c4nc5ccccc5n4Cc4ccc(F)cc4)CC3)(c3ccccc3)C2)cc(OC)c1OC` (stereo unspecified) displayed a melting point of 107 to 109 °C.

`CC(=O)Oc1cc2oc(=O)ccc2cc1C` had a melting point of 147 °C.

`CCCc1nc(CSc2ccc(CCC(=O)O)cc2)c(C(=O)OCC)n1Cc1cc2c(cc1Cl)OCO2` registered a melting point of 174 °C.

In turn, `Cn1c(=O)cc(-c2cccc(Cl)c2)c2cc(C(=O)c3ccoc3)ccc21` registered a melting point of 192 °C.

Turning to `COc1ccc(CCNC(=O)C(=O)NO)cc1OC1CCCC1`, the melting point fell in the range of 136 to 137 °C.

As for `OCCOc1cccc2cnccc12`, the melting point lay within 64 to 67 °C.

As for `Nc1cc(C(=O)NC2CC2)n(-c2nc(Cl)nc3ccoc23)n1`, the melting point was found to be 219 °C.

The compound `CCCC12CCC3C4CCC(=O)C=C4CCC3C1CCC2OC(=O)CCc1ccccc1` (stereo unspecified) came in with a melting point of 104 to 108 °C.

Compound `O=C(Nc1ccc(C(=O)N(CCN2CCC(C(=O)c3ccc(F)cc3)CC2)c2cccnc2)cc1)c1ccccc1` yielded a melting point of 162 to 166 °C.

In turn, `CC(C)(C)[Si](C)(C)O[C@@H]1C[C@]2(O)C[C@@H](OC2=O)[C@@H]1O` yielded a melting point of 90 to 94 °C.

On to `CC(C)C1=C(C#N)C(c2cccc3nocc23)c2c[nH]nc2N1` (stereo unspecified), for which the melting point was 245 °C.

Compound `CC(C)(C)OC(=O)N[C@@H](CC1CCCCC1)[C@@H]1CO1` yielded a melting point of 58 to 59.5 °C.

For the compound `COc1ccc(C2(C#Cc3ccccn3)CCC3(CC2)OCCO3)cc1OC1CCCC1`, the melting point lay within 41 to 42 °C.

For `CCOCc1nc2c(N)nc3ccccc3c2n1CCOCC#Cc1ccccc1`, the melting point lay in the range of 111 to 112 °C.

In turn, `O=C1c2ccccc2CN2C(=O)CCC12` (stereo unspecified) registered a melting point of 105 to 107 °C.

In turn, `Cn1cc2c([C@H]3C[C@H]3CN)cccc2n1` (relative stereo) yielded a melting point of 155 to 156 °C.

For `CCN1CC(CCN2CCOCC2)N(C)c2ccccc2C1=O` (stereo unspecified), the melting point was in the range of 128 to 148 °C.

Regarding `Cn1ccc(C(=O)c2sc(NC(=O)c3ccncc3)nc2-c2ccco2)c1`, the melting point is 209 to 211 °C.

Turning to `CC(=O)Nc1ccc(CN(C)C)c(O)c1`, the melting point fell in the range of 133 to 135 °C.

`CCOC(=O)CN1CC(OC)=CC1=O` returned a melting point of 54 to 56 °C.

Consider `O=C(O)c1ccccc1C(=O)c1ccc(N2CCOCC2)cc1O`, for which the melting point lay in the range of 184 to 187 °C.

On to `COC(C)=CC(=O)NC1CCCCCCC1`, for which the melting point came to 116 °C.

`Cc1ccc2nc(C)c(CCN3CCC(c4noc5cc(F)ccc45)CC3)c(=O)n2c1` registered a melting point of 187 °C.

`O=C(O)[C@@H]1C[C@@H](O)CN1CCO` yielded a melting point of 202 to 204 °C.

`O=C(N[C@H]1CCN(CCc2ccc(F)cc2)C1)N(C1CCCCC1)C1CCCCC1` displayed a melting point of 97 to 98 °C.

The compound `COc1ccc(Cn2nnc(C3=C(O)c4ccccc4S(=O)(=O)N3C)n2)cc1` came in with a melting point of 178 to 181 °C.

For the compound `CCOC(=O)C(C(N)=O)c1cc(OC)c(OC)c(OC)c1` (stereo unspecified), the melting point stood at 93 °C.

Consider `COc1cc(C(C)C)c(Oc2cnc(N[C@H](C)CO)nc2N)cc1Cl`, for which the melting point is 111 to 117 °C.

`O=C(c1ccco1)N1CCN(c2cc(-c3ccccc3)c3c(n2)CCCC3)CC1` gave a melting point of 128 to 130 °C.

Turning to `Clc1ccc(Nc2nncc3ccccc23)cc1`, the melting point turned out to be 211 °C.

In turn, `CC(C)(O)COCc1onc(-c2ccccc2)c1-c1ccc(S(N)(=O)=O)cc1` had a melting point of 160 to 162 °C.

Take `CS(=O)(=O)c1ccc(-c2cnn(-c3ccc(F)cc3)c(=O)c2Cc2cccc(F)c2)cc1`: the melting point was 176 to 178 °C.

On to `Cc1nc2ccccn2c1-c1csc(Nc2ccc(C(=O)Nc3ccccc3N)cc2)n1`, for which the melting point fell in the range of 161 to 165 °C.

The compound `Cc1cccc(C)c1N1CCN(c2c(C)cccc2C)C1=N` gave a melting point of 188 to 190 °C.

As for `O=C(Cc1ccccc1)Nc1ccccc1C(F)(F)F`, the melting point amounted to 104 °C.

In the case of `CCOc1ccc([N+](=O)[O-])c(C=C2NC(=O)NC2=O)c1`, the melting point lay in the range of 243 to 245 °C.

`CCN(CC)CCC1CCCCN1C(=O)N1c2ccccc2C(=O)Nc2cccnc21` (stereo unspecified) displayed a melting point of 100 °C.

Compound `Cc1cccc(C(=O)c2ccc(O)cc2)c1C` had a melting point of 155 to 158 °C.

Compound `NC(=O)c1cc(O)c(O)cc1N` came in with a melting point greater than 300 °C.

`Cc1c(N2CC(C)[C@@](N)(CF)C2)c(F)cc2c(=O)c(C(=O)O)cn([C@@H]3C[C@@H]3F)c12` (stereo partly specified) displayed a melting point of 200 to 203 °C.

For `OC(CCN1CCC(c2ccc(F)cc2)CC1)c1ccc(-c2ccccc2)cc1` (stereo unspecified), the melting point lay in the range of 129 to 132 °C.

In the case of `CC(C)=CCNC(=O)CCC(NC(=O)C=Cc1ccco1)C(=O)NCC=C(C)C` (stereo unspecified), the melting point lay in the range of 199 to 203 °C.

On to `Cc1c(C)c2c(c(C)c1NC=O)CC(C)(CSc1ccccc1)O2` (stereo unspecified), for which the melting point was in the range of 130 to 131 °C.

Take `Oc1ccc(-c2ccc(O)c3cc(O)c(O)cc23)cc1O`: the melting point is 224 to 226 °C.

On to `O=[N+]([O-])c1ccccc1Oc1cc(Cl)cc(Cl)c1`, for which the melting point is 78 to 80 °C.

In the case of `CCCOc1ccc(S(=O)(=O)N2CCN(C(C)=O)CC2)c(-c2nc3cc(N)c(N)cc3c(=O)[nH]2)c1`, the melting point was 177 to 180 °C.

The compound `Clc1ccccc1C(Cl)c1ccc(-c2ccccc2)cc1` (stereo unspecified) showed a melting point of 80 °C.

As a reminder, the melting point is the temperature of the solid-liquid transition.
